The assay deals with healthy volunteers. Description: Clinical pharmacology: diuresis and natriuresis. The format is in vivo, human. The conditions noted are these: 30 mg oral, between 2 and 8 hours after administration, p<0.05. Here is the method: With healthy volunteers (9 male subjects) enkephalinase and natriuretic auricular factor (ANF) plasma levels as well as diuresis and natruresis are measured after oral administration of either a placebo, or (S) acetorphan.

Consider `CC(=O)SCC(Cc1ccccc1)C(=O)NCC(=O)OCc1ccccc1` (single isomer, unassigned) [Compound (2)], for which the increase of diuresis worked out at 42% and the increase of natriuresis is 46%.

The record behind these values is patent publication US5136076A, “Process for the preparation of amino acid-derived enatiomeric compounds” (Societe Civile Bioprojet, priority 1987, dated 1992).
